pEC50, pIC50: −log10 of the molar value.
What was measured:
Glucocorticoid receptor [1] = molecular target: T1, Glucocorticoid receptor (Homo sapiens, UniProt P04150); assay: Inhibitory activity against GR (glucocorticoid receptor)
T1 sequence (P04150 whole entry): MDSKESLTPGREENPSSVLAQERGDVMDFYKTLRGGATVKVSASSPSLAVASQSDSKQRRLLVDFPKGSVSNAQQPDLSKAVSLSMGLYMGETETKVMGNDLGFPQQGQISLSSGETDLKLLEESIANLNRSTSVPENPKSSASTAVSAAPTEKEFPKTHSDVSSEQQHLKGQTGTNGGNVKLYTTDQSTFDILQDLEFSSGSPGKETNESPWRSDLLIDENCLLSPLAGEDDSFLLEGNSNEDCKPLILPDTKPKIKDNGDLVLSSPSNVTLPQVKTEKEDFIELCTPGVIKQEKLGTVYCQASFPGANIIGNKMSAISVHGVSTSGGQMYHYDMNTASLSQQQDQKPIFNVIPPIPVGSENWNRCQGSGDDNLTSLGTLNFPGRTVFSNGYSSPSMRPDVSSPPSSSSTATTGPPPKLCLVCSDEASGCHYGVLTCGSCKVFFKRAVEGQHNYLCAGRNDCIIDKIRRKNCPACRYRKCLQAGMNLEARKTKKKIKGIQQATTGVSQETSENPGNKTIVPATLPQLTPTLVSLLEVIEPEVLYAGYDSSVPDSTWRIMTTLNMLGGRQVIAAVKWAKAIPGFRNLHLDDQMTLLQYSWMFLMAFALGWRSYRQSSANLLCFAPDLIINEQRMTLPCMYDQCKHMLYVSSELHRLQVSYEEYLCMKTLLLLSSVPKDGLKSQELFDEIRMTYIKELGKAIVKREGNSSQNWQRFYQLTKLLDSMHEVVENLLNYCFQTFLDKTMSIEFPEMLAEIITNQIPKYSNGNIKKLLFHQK

Glucocorticoid receptor [2] = molecular target: T1, Glucocorticoid receptor; assay: Effective concentration against GR (glucocorticoid receptor)
Progesterone receptor [3] = molecular target: T2, Progesterone receptor (Homo sapiens, UniProt P06401); assay: Effective concentration on alkaline phosphatase activity in human T47D breast carcinoma cell line.; type: functional, cell-based
T2 sequence (P06401 whole entry): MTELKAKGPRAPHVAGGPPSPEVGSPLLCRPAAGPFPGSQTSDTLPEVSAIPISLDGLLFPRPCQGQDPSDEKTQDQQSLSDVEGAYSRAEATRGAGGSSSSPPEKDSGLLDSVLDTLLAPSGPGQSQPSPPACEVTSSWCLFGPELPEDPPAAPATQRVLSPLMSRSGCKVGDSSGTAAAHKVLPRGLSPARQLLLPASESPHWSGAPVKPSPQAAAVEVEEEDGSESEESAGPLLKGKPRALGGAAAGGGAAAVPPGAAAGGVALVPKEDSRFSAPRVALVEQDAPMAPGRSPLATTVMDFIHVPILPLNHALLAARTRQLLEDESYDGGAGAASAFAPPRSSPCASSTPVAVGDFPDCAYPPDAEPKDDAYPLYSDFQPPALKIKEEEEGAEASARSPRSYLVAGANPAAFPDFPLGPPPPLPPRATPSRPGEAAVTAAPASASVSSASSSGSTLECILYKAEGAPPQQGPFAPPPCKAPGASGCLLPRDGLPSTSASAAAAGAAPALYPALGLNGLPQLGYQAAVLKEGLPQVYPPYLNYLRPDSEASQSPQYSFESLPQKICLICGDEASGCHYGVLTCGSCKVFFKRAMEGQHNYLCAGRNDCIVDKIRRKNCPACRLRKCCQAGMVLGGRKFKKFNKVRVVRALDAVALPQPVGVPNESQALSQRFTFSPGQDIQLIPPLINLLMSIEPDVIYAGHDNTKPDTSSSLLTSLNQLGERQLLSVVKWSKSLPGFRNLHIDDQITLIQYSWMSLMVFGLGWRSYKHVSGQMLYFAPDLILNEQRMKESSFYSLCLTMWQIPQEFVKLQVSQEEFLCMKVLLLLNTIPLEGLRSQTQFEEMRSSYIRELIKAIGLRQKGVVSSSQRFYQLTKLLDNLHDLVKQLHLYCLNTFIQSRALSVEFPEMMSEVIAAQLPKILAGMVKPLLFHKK

Androgen receptor [4] = molecular target: T3, Androgen receptor (Mus musculus, UniProt P19091); assay: Inhibitory activity against Androgen receptor
T3 sequence (P19091 whole entry): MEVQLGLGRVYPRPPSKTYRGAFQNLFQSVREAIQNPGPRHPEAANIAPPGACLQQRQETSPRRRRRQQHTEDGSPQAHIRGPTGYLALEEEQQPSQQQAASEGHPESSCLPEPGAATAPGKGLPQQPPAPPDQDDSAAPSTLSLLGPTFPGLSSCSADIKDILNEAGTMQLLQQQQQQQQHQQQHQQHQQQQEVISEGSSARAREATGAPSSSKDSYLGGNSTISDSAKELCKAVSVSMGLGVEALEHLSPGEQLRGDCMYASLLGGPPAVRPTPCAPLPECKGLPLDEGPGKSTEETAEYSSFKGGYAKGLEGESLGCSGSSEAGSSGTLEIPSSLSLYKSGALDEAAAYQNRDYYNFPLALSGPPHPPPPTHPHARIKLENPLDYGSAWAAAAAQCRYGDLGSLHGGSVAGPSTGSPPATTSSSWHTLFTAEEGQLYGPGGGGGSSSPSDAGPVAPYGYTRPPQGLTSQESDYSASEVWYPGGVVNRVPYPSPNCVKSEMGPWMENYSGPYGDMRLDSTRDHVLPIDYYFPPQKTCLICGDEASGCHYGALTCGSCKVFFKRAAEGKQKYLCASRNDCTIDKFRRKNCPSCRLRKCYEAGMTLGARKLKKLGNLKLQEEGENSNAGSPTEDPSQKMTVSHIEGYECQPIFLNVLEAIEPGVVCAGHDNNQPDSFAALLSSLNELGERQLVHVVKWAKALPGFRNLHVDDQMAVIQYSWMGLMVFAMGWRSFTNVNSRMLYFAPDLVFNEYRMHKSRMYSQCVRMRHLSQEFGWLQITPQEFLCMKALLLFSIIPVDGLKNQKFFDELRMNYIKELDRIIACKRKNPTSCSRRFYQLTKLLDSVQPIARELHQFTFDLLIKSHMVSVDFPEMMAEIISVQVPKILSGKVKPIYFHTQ

Androgen receptor [5] = molecular target: T3, Androgen receptor; assay: Effective concentration against Androgen receptor
Progesterone receptor [6] = molecular target: T2, Progesterone receptor; assay: Inhibition of [3H]P4 to progesterone receptor (PR) of human T47D breast carcinoma cells; type: cell-based
Progesterone receptor [7] = molecular target: T2, Progesterone receptor; assay: Effective concentration against PR (progesterone receptor)

CC1(C)OC(=S)Nc2ccc(-c3csc(C#N)c3)cc21
pIC50 (Glucocorticoid receptor [1]): 5.88
pEC50 (Glucocorticoid receptor [2]): < 5.00
pEC50 (Progesterone receptor [3]): 9.40
pIC50 (Androgen receptor [4]): 6.42
pEC50 (Androgen receptor [5]): < 5.00
pIC50 (Progesterone receptor [6]): 8.52
pEC50 (Progesterone receptor [7]): 9.42
